The assay deals with MS2 phage. Put plainly: Antiviral activity of chlorinated coated surfaces, modified AATCC Method 100-1998. It counts as cell-based, MS2 virus. Here is the method: Soft and hard surfaces were treated by exposure to a solution of 3-triethoxysilylpropyl-5,5-dimethylhydantoin, as prepared in Example 1, and then halogenated with hypochlorite bleach, prior to being exposed to a challenge inoculum of a virus (MS2 phage). […] Soft surfaces used in these experiments were swatches of woven cotton textiles, and slabs cut from a standard kitchen sponge. Hard surfaces used were porcelain and marble tiles.
For the preparation of antimicrobial textiles, fabric and sponge samples were immersed in 5% solution of 3-triethoxysilylpropyl-5,5-dimethylhydantoin and dried in a convection oven at 90° C. for two hours. Chlorination of the coated cellulose materials was accomplished by placing them in the wash chamber of a standard, household washing machine, and processing them through a normal, cold water small load cycle, with one rinse. The washing solution contained 100 mL of CLOROX ULTRA (sodium hypochlorite) per load. […] Chlorine contents were calculated and expressed as ppm Cl^+. […]
Hard surface samples were exposed to the 3-triethoxysilylpropyl-5,5-dimethylhydantoin by using a sponge soaked in the 5% solution, before transfer to a drying oven at 90° C. for two hours. […] Chlorine bound to hard surfaces was determined by iodometric/thiosulfate titration, and chlorine contents were expressed as μg Cl^+ per square cm. […]

`CCO[Si](CCCN1C(=O)NC(C)(C)C1=O)(OCC)OCC` [3-triethoxysilylpropyl-5,5-dimethylhydantoin]: the “Log 10 reduction of MS2 titer” value reads like this: (cellulose substrates (textile and sponge), 24 hours of contact) “approximately 4 logs”; (hard surfaces, contact times of as little as 6 hours) “approximately 2 logs”.

(Values after patent US20080003438A1, “Heterocyclic siloxanes for use in biocidal coatings and materials” (Auburn University, priority 2002, published 2008).)
